Results as given in ChEMBL document CHEMBL4433226, “Unnatural Tripeptides as Potent Positive Allosteric Modulators of T1R2/T1R3” (ACS Med Chem Lett, 2019).
Activity calls are given as the source filed them. No cut-off for these calls is given here.

Legend:
T1R2/T1R3 (Homo sapiens) [1] = biological target: T1, T1R2/T1R3 (Homo sapiens) (UniProt Q8TE23+Q7RTX0); test: Agonist activity at human T1R2/T1R3 expressed in PEAKrapid cells assessed as effect on intracellular calcium influx measured for 120 secs by fluorescence based assay; format: functional, cell-based
T1R2/T1R3 (Homo sapiens) [2] = biological target: T1, T1R2/T1R3 (Homo sapiens); test: Positive allosteric modulator activity at human T1R2/T1R3 expressed in PEAKrapid cells assessed as potentiation of sucrose-induced intracellular calcium influx by measuring sucrose EC50 at 30 uM measured for 120 secs by fluorescence based assay relative to FEMA4774; format: functional, cell-based
Homo sapiens = species on record: Homo sapiens; test: Sweetness enhancing activity in trained human panelists assessed as rating of perceived sweetness intensity of depicted sucrose solutions at 10 ppm co-treated with 5% sucrose relative to original level; format: functional
T1R2/T1R3 (Homo sapiens) [3] = biological target: T1, T1R2/T1R3 (Homo sapiens); test: Positive allosteric modulator activity at human T1R2/T1R3 expressed in PEAKrapid cells assessed as potentiation of sucrose-induced intracellular calcium influx by measuring sucrose EC50 at 50 uM measured for 120 secs by fluorescence based assay relative to compound-2; format: functional, cell-based

Row | Structure (SMILES) | Activity (T1R2/T1R3 (Homo sapiens) [1]) | Efficacy (T1R2/T1R3 (Homo sapiens) [2]) [%] | fold change (FC) (Homo sapiens) | Efficacy (T1R2/T1R3 (Homo sapiens) [3]) [%]
1 | CC(C)[C@@H](CC(=O)Nc1cncc(C(=O)O)c1N)NC(=O)[C@@H](N)C1CCCCC1 | inactive | 35 |  | 
2 | CC(C)[C@@H](CCC(=O)Nc1cncc(C(=O)O)c1N)NC(=O)[C@@H](N)C1CCCCC1 | inactive | 45 |  | 
3 | CC[C@H](C)[C@@H](CCC(=O)Nc1cncc(C(=O)O)c1N)NC(=O)[C@@H](N)C1CCCCC1 | inactive | 51 |  | 
4 | CC(C)C[C@@H](CC(=O)Nc1cncc(C(=O)O)c1N)NC(=O)[C@@H](N)C1CCCCC1 | inactive | 38 |  | 
5 | Nc1c(NC(=O)CCCNC(=O)[C@@H](N)C2CCCCC2)cncc1C(=O)O | inactive | 37 |  | 
6 | CC(C)C(=O)NCc1ccc(-c2cncc(C(=O)O)c2N)o1 | inactive | 37 |  | 
7 | Cl.Cl.Nc1c(NC(=O)CCCCNC(=O)[C@@H](N)C2CCCCC2)cncc1C(=O)O | inactive | 45 | 1.96 | 
8 | Cl.Cl.Nc1c(C(=O)O)cncc1-c1ccc(CNC(=O)[C@@H](N)C2CCCCC2)o1 | inactive | 72 | 1.77 | 
9 | CC(C)CNC(=O)NCc1ccc(-c2cncc(C(=O)O)c2N)o1 | inactive | 48 |  | 
10 | CC[C@H](C)[C@H](N)C(=O)NCc1ccc(-c2cncc(C(=O)O)c2N)o1 | inactive | 55 |  | 
11 | CC(C)(C)OC(=O)NCc1ccc(-c2cncc(C(=O)O)c2N)o1 | inactive | 41 |  | 
12 | CC(C)[C@H](N)C(=O)NCc1ccc(-c2cncc(C(=O)O)c2N)o1 | inactive | 52 |  | 
13 | Nc1c(C(=O)O)cncc1-c1cccs1 | inactive |  |  | 85
14 | C[C@@H](CC(=O)Nc1cncc(C(=O)O)c1N)NC(=O)[C@@H](N)C1CCCCC1 | inactive | 44 |  | 
15 | Cc1nc2cccc(OCC(C)(C)C(=O)NC(C)C)c2c(N)c1C(=O)O | inactive |  | 1.97 | 
16 | Nc1c(C(=O)O)cncc1-c1ccccc1 | inactive |  |  | 80
17 | Cc1nc2ccccc2c(N)c1C(=O)O | inactive |  |  | 
18 | CC(=O)NCc1ccc(-c2cncc(C(=O)O)c2N)o1 | inactive | 33 |  | 
19 | CC(C)CNC(=O)C(=O)NCc1ccc(-c2cncc(C(=O)O)c2N)o1 | inactive | 43 |  | 
20 | Nc1c(NC(=O)CC[C@H](Cc2ccccc2)NC(=O)[C@@H](N)C2CCCCC2)cncc1C(=O)O | inactive | 55 |  | 
21 | CC(C)CC(=O)NCc1ccc(-c2cncc(C(=O)O)c2N)o1 | inactive | 42 |  | 
22 | Nc1c(NC(=O)CCCCCCNC(=O)[C@@H](N)C2CCCCC2)cncc1C(=O)O | inactive | 36 |  | 
23 | CC(C)(CC(=O)Nc1cncc(C(=O)O)c1N)NC(=O)[C@@H](N)C1CCCCC1.Cl.Cl | inactive | 67 | 2.05 | 
24 | Nc1c(C(=O)O)cncc1-c1ccco1 | inactive |  |  | 83
25 | CC(C)C[C@H](N)C(=O)NCc1ccc(-c2cncc(C(=O)O)c2N)o1 | inactive | 61 |  | 
